Results published in US12491246B2, “Combination therapy of arms and natural killer cells” (KLEO PHARMACEUTICALS, INC., priority 2018, dated 2025).

Legend:
CIML NK cells = test: CIML NK cell fratricide assay; type: cell-based
Protocol: (§1) PBMC isolation: Leukopheresis product from a donor with body mass index (BMI) between 19-25, under 50 years old, not on immuno-suppressive drugs for at least 2 weeks with an estimated PBMC cell count of >10^10 was obtained from Key Biologics (subject ID 20982200) and transported at ambient temperature. Leukopheresis bag was wiped down with 70% EtOH, a small slit was made and contents were pipetted off into tubes. Leukopak contents were diluted 1:1 with PBS without Ca++/Mg++ and 20 ml of this mixture was layered on top of 25 mL of Ficoll. Tubes were then centrifuged at 400 g for 30 minutes without brakes. PBMCs were harvested from the interface into separate tubes, and tubes were filled to 50 mL with PBS. Cells were centrifuged for 10 min at 120 g to get rid of platelets. Supernatant was poured off and cells were re-suspended in RPMI 10% FBS at a concentration of 7-10×10^6 cells/ml. Cells were cultured overnight at 37C in a 5% CO2 atmosphere until NK cell isolation.
(§2) NK cell isolation: PBMC were centrifuged at 400 g for 10 min and re-suspended in EasySep buffer. NK cells were isolated using NK cell isolation kits from STEMCELL Technologies according to kit's manufacturers' instructions. NK cell purity and phenotype was assessed by trypan Blue and flow cytometry using the following antibody cocktail: anti-CD56PE, CD3 APC, and viability was determined using staining with Trypan Blue exclusion dye, and by flow cytometry using Near Infra-Red Fixable viability dye (Thermo Fisher).
CIML NK cell generation: Isolated NK cells were re-suspended at 2×10^6 cells/ml in XVIVO 10% Human Serum and the following concentrations IL-15 (50 ng/ml), IL-12 (10 ng/ml), IL-18(50 ng/ml) for 12 to 18 hrs. […]
(§3) NK cell fratricide (death directed at NK cells in the same culture) was assessed by flow cytometry following a 2 hr incubation with the CD38 ARM at indicated concentrations in the presence or absence of 500 μg/ml intravenous immune globulin (IVIG). […]

[1] = test system: CD56+CD138− CIML NK cells; test: NK cell fratricide in patient bone marrow co-incubation; type: cell-based, human; conditions: co-incubated with patients bone marrow for 4 hrs; FIG. 4
Protocol: Patient bone marrow (3 ml) and blood (20 ml) were shipped at ambient temperature from Discovery Biosciences. Bone marrow was diluted 1:1 with PBS, and 50 μl of bone marrow-PBS mixture was aliquoted into 96 deep well plates. Bone marrow cells were incubated overnight until CIML cells were added next day.
PBMC were isolated from blood by Ficoll density gradient centrifugation. PBMC were centrifuged at 400 g for 10 min and re-suspended in EasySep buffer. NK cells were isolated using NK cell isolation kits from STEMCELL Technologies according to kit's manufacturers' instructions.
NK cells were re-suspended at 1×10^6 cells/ml in XVIVO15, 10% Human Serum, IL-15 (50 ng/ml), IL-12 (10 ng/ml), IL-18(50 ng/ml), and incubated for 18 hrs. Following overnight incubation with cytokines, NK cells were washed twice with PBS 5% Human Serum Albumin, counted and re-suspended at a cell density of 2×10^5 cells/ml of XVIVO15 media. Twenty microliters (4000 cells) were added per each well containing 50 μl of bone marrow: PBS mixture. […]
The assay was then incubated for 4 hrs. at 37° C. […] Finally, cells were re-suspended in 200 μl of FACS Buffer and analyzed using Attune Flow Cytometer. Data were analyzed using FlowJo software and graphed using GraphPad Prism. […]

non-CIML NK cells = test: NK cell fratricide assay, non-CIML control NK cells; type: cell-based; conditions: 2 hr
Protocol: as §1
as §2, with “Fisher). […]” for “Fisher).”
Purity and viability of NK cells and CIML NK cells: Among other things, the present disclosure provides highly pure and viable NK cell populations following isolation from PBMC. […] After an overnight incubation, purity and viability were assessed in the cultured cell populations. […]
as §3

CCCCC[C@@H]1NC(=O)[C@H](CCCNC(=N)N)NC(=O)[C@H](C)NC(=O)CSC[C@@H](C(=O)NCCOCCOCCOCCOCCOCCOCCn2nnc3c2CCC2C(CC3)C2COC(=O)N2CCC(C(=O)NCC(=O)N[C@H](CCC(=O)N[C@H](CCC(=O)N[C@H](CCC(=O)O)C(=O)N[C@H](CCC(=O)N[C@H](CCC(=O)NCC(=O)NCC(=O)N[C@@H](CC(=O)O)C(=O)N[C@H]3CSSC[C@@H](C(=O)N[C@H](C(=O)O)[C@@H](C)O)NC(=O)[C@H](Cc4c[nH]c5ccccc45)NC(=O)[C@H](C(C)C)NC(=O)[C@H](CC(C)C)NC(=O)[C@H](CCC(=O)O)NC(=O)CNC(=O)[C@H](CC(C)C)NC(=O)[C@H](Cc4c[nH]cn4)NC(=O)[C@H](Cc4c[nH]c5ccccc45)NC(=O)[C@H](C)NC3=O)C(=O)O)C(=O)O)C(=O)O)C(=O)O)CC2)NC(=O)[C@H](CC(=O)O)NC(=O)[C@H](CCCCC)NC(=O)[C@H](Cc2ccc(-c3ccccc3)cc2)NC(=O)[C@H](CC(C)C)NC(=O)[C@H](C(C)C)NC(=O)CNC(=O)[C@H](CC(=O)O)NC(=O)[C@H](Cc2c[nH]cn2)NC(=O)[C@H](Cc2ccc(O)cc2)NC1=O (some centres unmarked) [CD38 ARM]
increase in the percentage of dead NK cells (CIML NK cells; CIML NK cells, +/−IVIG, 2 hours post-incubation): no increase
NK cell fratricide (data normalized to DMSO treated control) (CIML NK cells; even the highest doses, FIG. 1 (B)): no apparent NK cell fratricide was detected
frequencies of CD56+CD138− CIML NK cells (NK cell fratricide) [1]: did not change
increase in dead NK cells (non-CIML NK cells; 25 uM vs DMSO control): 1.7%
increase in dead NK cells (non-CIML NK cells; highest concentration with IVIG vs DMSO IVIG control): 0.93%
